Laboratory results: patent US20110071289A1, “AMINOPYRAZOLE AMIDE DERIVATIVE” (DAINIPPON SUMITOMO PHARMA CO., LTD., priority 2007, published 2011)

Legend:
[1] = test system: cortisone reducing activity of cultured human adipocytes; test: Inhibitory activity assay for cortisone reducing activity of cultured human adipocytes; assay type: cell-based; details: 100 nM [1,2-3H] cortisone, 37° C. for 3 hours
Method: Normal human proadipocytes (HPrAD-vis, Cambrex) were inoculated on 48 well plate, and differentiated according to a protocol attached to a kit. Media for cells on 9-11th day of differentiation were changed to 0.2 ml of D-MEM media (GIBCO, Inc.) containing 100 nM [1,2-^3H] cortisone (1 μCi/well, Muromati Yakuhin), 0.5% DMSO, test compound (DMSO only for test compound-addition districts and test compound additive-free districts). After incubation at 37° C. for 3 hours, all media were collected. As background districts, cell additive-free media were used. Media were mixed with ethyl acetate (0.1 ml) in Eppendorf tube. The mixture was vortexed, and then centrifuged at 5,000 rpm×1 minute at room temperature to separate ethyl acetate (upper layer). Ethyl acetate (10 μl) was spotted on aluminum plate for thin-layer chromatography (silica gel 60 angstrom, Merck, referred to as TLC plate hereinafter). To a sealed vessel was added chloroform/methanol (90:10, v/v) as an eluent, and TLC plate was developed and then dried at room temperature. To the dried TLC plate was exposed an imaging plate (TR-2040, FUJIFILM) over 16 or more hours. After exposure, the imaging plate was analyzed by Bioimage analyzer (BAS2500, FUJIFILM), and [^3H] radioactivity of the spot corresponding to cortisol on TLC plate was determined Inhibitory activities of cortisone reducing activities of test compounds were calculated as below.
(Inhibitory activity (%))=100×((Test compound additive-free districts)−(Test compound-addition districts))/((Test compound additive-free districts)−(Background districts))
IC50 values were calculated by a linear regression of logarithmic values of analyte concentrations and inhibitory activity values using 2-point data wherein inhibitory activities indicated values around 50%. […] IC50 values for human adipocyte cortisone reducing activities of the following inventive compounds were determined

human 11βHSD1 = molecular target: T1, human 11βHSD1 (Homo sapiens, UniProt P28845); test: Measurement of human 11βHSD1 inhibitory activity (HTRF cortisol detection); assay type: biochemical; details: human 11βHSD1 enzyme fraction, 20 nM cortisone, 37° C. for 2 hours
T1 construct: made in house; host or cells: CHO-K1 cells stably transfected with pCMV-Tag 2B plasmid; pellet after ultracentrifugation at 100,000 g
T1 sequence (P28845 whole entry): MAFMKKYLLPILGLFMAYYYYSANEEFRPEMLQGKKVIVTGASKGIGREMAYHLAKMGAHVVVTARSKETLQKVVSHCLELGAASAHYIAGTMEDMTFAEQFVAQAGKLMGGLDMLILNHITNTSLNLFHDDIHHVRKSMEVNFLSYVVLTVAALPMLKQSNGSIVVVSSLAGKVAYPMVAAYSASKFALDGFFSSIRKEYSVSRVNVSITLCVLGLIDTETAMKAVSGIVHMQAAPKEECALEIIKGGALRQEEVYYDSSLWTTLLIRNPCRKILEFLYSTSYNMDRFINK
Excerpt: A sequence containing ORF of human 11βHSD1 gene (GenBank Accession No. BC012593) was amplified according to PCR technique which was one of conventional methods, and digested by a restriction enzyme BamHI/XhoI. 2 kb of DNA fragments obtained from agarose gels were inserted into pCMV-Tag 2B plasmids (Stratagene) according to a conventional method. The plasmids prepared in Escherichia coli in large amounts were transformed into CHO-K1 cells, and then cells stably expressing human 11βHSD1 genes were selected by medium containing 400 μg/ml G-418 solution (GIBCO, Inc.) containing media. The resulting stably expressing cells were incubated up to −90% confluent in F-12 medium (Nacalai Tesque, Inc.) containing 10% charcoal-dextran treated fetal bovine serum (Hyclone), 1% penicillin-streptomycin (Nacalai Tesque, Inc.) and 400 μg/ml G-418. The resultant cells were treated by tripsin, and the obtained cells were suspended in the above media (1 L) and seeded in cell stack 10 chamber (Corning) in total amounts. The mixture was incubated in CO2 incubator (5% CO2, 37° C.) for 4-5 days, and then treated by tripsin. Total amounts of the obtained cells were washed with PBS buffer (GIBCO, Inc.), and stored at −80° C. […]
A test compound and cortisone (Sigma) was diluted with buffer (50 mM HEPES pH7.3, 150 mM NaCl, 1 mM EDTA) to prepare a substrate solution containing a test compound (50 mM HEPES pH7.3, 150 mM NaCl, 1 mM EDTA, 1 mM NADPH, 20 nM cortisone) (2% DMSO solution), and the solution was added to 384-well low-volume plate (manufactured by Greiner, No. 3782086) in 4 μl/well. […] After the enzyme reaction, the produced cortisol was detected by Homogeneous time-resolved fluorescence (HTRF) to determine enzyme inhibitory activities. […] A fluorescence intensity was determined by 2120 EnVision® Multilabel counter (PerkinElmer) to calculate enzyme inhibitory activities from 2 wavelengths of fluorescence intensity ratios (665 nm/620 nm).
Each inhibitory activity (%) of each test compound was calculated from the average value (%) of inhibitory activities of 4 wells under the same condition. […]

SMILES	IC50 ([1]; Adipocyte)	IC50 (human 11βHSD1)	also measured
CC(C)N(C)c1cc(C(=O)N[C@H]2C3CC4CC2C[C@](C(N)=O)(C4)C3)nn1C [Example 8, N-[(E)-5-Carbamoyladamantan-2-yl]-5-[isopropyl(methyl)amino]-1-methyl-1H-pyrazole-3-carboxamide]	8.7 nM	–	–
CN(C)c1c(Cl)c(C(=O)N[C@H]2C3CC4CC2C[C@](C(N)=O)(C4)C3)nn1C [Example 11, N-[(E)-5-Carbamoyladamantan-2-yl]-4-chloro-5-(dimethylamino)-1-methyl-1H-pyrazole-3-carboxamide]	–	32 nM	–
CN(CC1CC1)c1cc(C(=O)N[C@H]2C3CC4CC2C[C@](C(N)=O)(C4)C3)nn1C [Example 15, N-[(E)-5-Carbamoyladamantan-2-yl]-5-[(cyclopropylmethyl)(methyl)amino]-1-methyl-1H-pyrazole-3-carboxamide]	–	39 nM	–
CN(c1cc(C(=O)N[C@H]2C3CC4CC2C[C@](C(N)=O)(C4)C3)nn1C)C1CCC1 [Example 19, N-[(E)-5-Carbamoyladamantan-2-yl]-5-[cyclobutyl(methyl)amino]-1-methyl-1H-pyrazole-3-carboxamide]	–	25 nM	–
COc1ccc(C2(N(C)c3c(Cl)c(C(=O)NC4C5CC6CC4CC(C(N)=O)(C6)C5)nn3C)CC2)cc1 (stereo not drawn) [Example 22, N-[(E)-5-(Aminocarbonyl)-2-adamantyl]-4-chloro-5-[[1-(4-methoxyphenyl)cyclopropyl](methyl)amino]-1-methyl-1H-pyrazole-3-carboxamide]	–	–	IC50 [1]: 1.8 nM
CN(CC1CCN(c2ccc(C#N)cn2)CC1)c1c(Cl)c(C(=O)N[C@H]2C3CC4CC2C[C@](O)(C4)C3)nn1C [Example 166, 4-Chloro-5-[{[1-(5-cyanopyridin-2-yl)piperidin-4-yl]methyl}(methyl)amino]-N-[(E)-5-hydroxy-2-adamantyl]-1-methyl-1H-pyrazole-3-carboxamide]	6.4 nM	–	–
